Paper PMC2808703 (Bioorganic & medicinal chemistry, 2009)
Where two headings read alike, the source gives them in different places.

Key:
[1] = system: phospho-Akt in BxPC-3 pancreatic cancer cells; test: Cell inhibition of phospho-Akt in BxPC-3 pancreatic cancer cells; format: cell-based; conditions: for IC50: Homo sapiens, BXPC-3, read-out: IC50 (Akt inhibition)
Caco-2 = conditions: curated dataset; cited from earlier work
[2] = system: phospho-Akt in BxPC-3 pancreatic cancer cells; conditions: hits experimentally tested and confirmed active; cited from earlier work

For `CC(=O)Nc1ccc(S(=O)(=O)Nc2nncs2)cc1` [Compound 11], the “IC50 (Akt inhibition)” value ([1]; BxPC-3 cells, phospho-Akt) was “no activity” and the IC50 [1] was > 50 µM.

In the case of `C[C@H]1[C@H](OC(=O)CCC(=O)O)O[C@@H]2O[C@@]3(C)CC[C@H]4[C@H](C)CC[C@@H]1[C@@]24OO3` [sodium artesunate], the “Caco-2 permeability, experimental” value (Caco-2) is listed as 3.98 ×10⁻⁶ cm/s.

In the case of `COc1cccc2c1C(=O)c1c(O)c3c(c(O)c1C2=O)C[C@@](O)(C(=O)CO)C[C@@H]3O[C@H]1C[C@H](N)[C@H](O)[C@H](C)O1` [doxorubicin], the “Caco-2 permeability, experimental” value (Caco-2) is given as 0.16 ×10⁻⁶ cm/s.

In the case of `CC(C)Cc1ccc(C(C)C(=O)O)cc1` (stereo not shown) [ibuprofen], the “Caco-2 permeability, experimental” value (Caco-2) is given as 52.5 ×10⁻⁶ cm/s.

In the case of `CO/N=C(\C(=O)N[C@@H]1C(=O)N2C(C(=O)O)=C(CSc3nc(=O)c(O)nn3C)CS[C@H]12)c1csc(N)n1` [cerftriaxone], the “Caco-2 permeability, experimental” value (Caco-2) is given as 0.13 ×10⁻⁶ cm/s.

For `COCCOCCOCC(=O)Nc1ccc(S(=O)(=O)Nc2nncs2)cc1` [Compound 12], the IC50 [1] was > 50 µM.

In the case of `CN1CCN(CC(=O)N2c3ccccc3C(=O)Nc3cccnc32)CC1` [pirenzepine], the “Caco-2 permeability, experimental” value (Caco-2) is listed as 0.437 ×10⁻⁶ cm/s.

For `Cc1nnc(NS(=O)(=O)c2ccc(NS(=O)(=O)c3ccc4ccccc4c3)cc2)s1` [Compound 9], the IC50 [2] is listed as 20 µM.

In the case of `CCCCCCCCCC(=O)Nc1ccc(S(=O)(=O)Nc2nncs2)cc1` [Compound 13], the IC50 [1] is reported as 10 µM.
